This is an account of results in ChEMBL document CHEMBL1165927, “Insulinomimetic activity of two new gallotannins from the fruits of Capparis moonii” (2010).

The target of assay [1] is T1, Insulin receptor substrate 1 (Rattus norvegicus) (UniProt P35570).
T1 sequence (whole entry): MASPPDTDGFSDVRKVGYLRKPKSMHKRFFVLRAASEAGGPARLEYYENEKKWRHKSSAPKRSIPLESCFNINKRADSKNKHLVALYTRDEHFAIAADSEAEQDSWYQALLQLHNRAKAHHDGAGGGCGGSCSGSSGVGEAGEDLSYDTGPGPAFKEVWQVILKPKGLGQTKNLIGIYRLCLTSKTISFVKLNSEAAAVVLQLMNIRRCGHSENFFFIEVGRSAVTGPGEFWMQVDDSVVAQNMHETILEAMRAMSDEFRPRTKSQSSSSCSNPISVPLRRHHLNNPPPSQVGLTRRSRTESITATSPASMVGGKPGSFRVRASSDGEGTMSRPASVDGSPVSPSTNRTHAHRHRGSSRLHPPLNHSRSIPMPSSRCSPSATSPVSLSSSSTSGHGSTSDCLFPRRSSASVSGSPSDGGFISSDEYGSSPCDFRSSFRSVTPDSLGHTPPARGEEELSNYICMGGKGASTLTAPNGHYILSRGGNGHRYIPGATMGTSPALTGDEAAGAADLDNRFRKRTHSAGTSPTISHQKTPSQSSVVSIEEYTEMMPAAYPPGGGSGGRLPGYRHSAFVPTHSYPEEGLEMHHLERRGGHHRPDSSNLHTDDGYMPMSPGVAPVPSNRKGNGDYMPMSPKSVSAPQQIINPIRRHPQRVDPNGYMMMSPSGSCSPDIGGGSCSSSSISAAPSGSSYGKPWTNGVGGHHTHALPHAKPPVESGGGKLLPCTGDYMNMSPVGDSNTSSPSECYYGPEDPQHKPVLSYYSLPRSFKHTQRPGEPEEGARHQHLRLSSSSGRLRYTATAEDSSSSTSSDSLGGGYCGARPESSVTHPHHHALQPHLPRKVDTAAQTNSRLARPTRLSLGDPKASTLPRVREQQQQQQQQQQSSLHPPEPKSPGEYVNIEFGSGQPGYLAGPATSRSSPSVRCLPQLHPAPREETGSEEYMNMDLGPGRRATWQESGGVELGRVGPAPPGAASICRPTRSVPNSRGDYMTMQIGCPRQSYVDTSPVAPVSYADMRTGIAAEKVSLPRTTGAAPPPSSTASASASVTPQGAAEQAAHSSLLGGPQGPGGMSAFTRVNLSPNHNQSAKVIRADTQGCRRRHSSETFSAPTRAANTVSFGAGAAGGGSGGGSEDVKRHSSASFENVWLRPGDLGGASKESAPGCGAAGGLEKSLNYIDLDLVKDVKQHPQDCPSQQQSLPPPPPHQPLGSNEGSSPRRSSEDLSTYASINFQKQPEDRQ
Put plainly: […] in rat L6 cells after 24 hrs by immunoprecipitation. In kind it is cell-based.

Assay [2] concerns L6. Description: Increase in PI3K mRNA expression in rat L6 cells at 10 ng/ml by RT-PCR. Format: functional, cell-based.
In assay [3] the test system is L6. Put plainly: Inhibition of glucose uptake in rat L6 myocyte at 10 ng/ml after 24 hrs. Format: functional, cell-based.
In assay [4] the target is Insulin receptor (Rattus norvegicus) (UniProt P15127). Put plainly: […] in rat L6 cells after 24 hrs by immunoprecipitation. Format: cell-based.
Insulin receptor (Rattus norvegicus), sequence (P15127 27-759 limits assumed): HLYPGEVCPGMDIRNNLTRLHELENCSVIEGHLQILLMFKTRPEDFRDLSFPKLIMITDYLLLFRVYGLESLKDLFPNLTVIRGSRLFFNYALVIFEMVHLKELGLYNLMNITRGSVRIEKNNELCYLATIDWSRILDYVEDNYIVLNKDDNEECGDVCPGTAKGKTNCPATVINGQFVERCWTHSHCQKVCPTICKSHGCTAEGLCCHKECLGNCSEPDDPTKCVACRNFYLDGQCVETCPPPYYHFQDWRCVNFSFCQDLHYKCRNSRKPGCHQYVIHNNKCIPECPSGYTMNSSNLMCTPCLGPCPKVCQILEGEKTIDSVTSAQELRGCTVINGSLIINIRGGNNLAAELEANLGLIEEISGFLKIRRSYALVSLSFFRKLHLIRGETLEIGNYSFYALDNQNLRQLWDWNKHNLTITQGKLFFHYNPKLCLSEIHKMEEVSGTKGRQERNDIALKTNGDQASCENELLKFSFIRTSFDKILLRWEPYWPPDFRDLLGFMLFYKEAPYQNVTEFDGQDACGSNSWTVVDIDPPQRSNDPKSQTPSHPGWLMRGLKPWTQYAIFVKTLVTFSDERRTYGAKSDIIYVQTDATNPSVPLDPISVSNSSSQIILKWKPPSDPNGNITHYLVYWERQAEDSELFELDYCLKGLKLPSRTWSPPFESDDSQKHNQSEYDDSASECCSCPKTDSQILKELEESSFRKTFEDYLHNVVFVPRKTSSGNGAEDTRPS
Insulin receptor (Rattus norvegicus), sequence (P15127 764-1383 limits assumed): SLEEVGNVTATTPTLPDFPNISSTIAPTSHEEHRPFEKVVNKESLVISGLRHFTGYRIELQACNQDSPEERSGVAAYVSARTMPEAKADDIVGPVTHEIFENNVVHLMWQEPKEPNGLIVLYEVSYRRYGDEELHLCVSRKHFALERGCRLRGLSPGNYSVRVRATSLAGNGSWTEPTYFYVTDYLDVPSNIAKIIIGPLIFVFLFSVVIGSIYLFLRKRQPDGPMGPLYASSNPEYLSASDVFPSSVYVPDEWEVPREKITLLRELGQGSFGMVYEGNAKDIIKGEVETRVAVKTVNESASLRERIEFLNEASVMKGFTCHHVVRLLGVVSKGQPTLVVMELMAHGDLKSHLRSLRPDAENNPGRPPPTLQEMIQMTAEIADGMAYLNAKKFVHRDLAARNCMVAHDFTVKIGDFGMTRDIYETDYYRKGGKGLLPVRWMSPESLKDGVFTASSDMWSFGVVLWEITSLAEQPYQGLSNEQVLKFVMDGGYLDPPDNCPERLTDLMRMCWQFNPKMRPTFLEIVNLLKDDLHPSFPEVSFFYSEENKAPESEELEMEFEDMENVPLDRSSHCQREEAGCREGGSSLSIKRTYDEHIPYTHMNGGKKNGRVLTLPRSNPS
For assay [5], the system named is L6. Put plainly: Increase in GLUT4 mRNA expression in rat L6 cells at 50 uM by RT-PCR. In kind it is functional, cell-based.
The subject of assay [6] is L6. Description: Inhibition of glucose uptake in rat L6 myocyte at 50 uM after 24 hrs. Format: functional. The note with it: L6, 24 h, values are per cent of control.
In assay [7] the test system is L6. Put plainly: Increase in PI3K mRNA expression in rat L6 cells at 100 ng/ml by RT-PCR. Format: functional, cell-based.

Active and inactive are the calls of the source. The calls are words filed in the database; no cut-off is given here.

As to `O=C(O)CC(C(=O)O)C1c2c(C(=O)O[C@H]3[C@H](OC(=O)c4cc(O)c(O)c(O)c4)O[C@H](COC(=O)c4cc(O)c(O)c(O)c4)[C@@H](O)[C@H]3OC(=O)c3cc(O)c(O)c(O)c3)cc(O)c(O)c2OC(=O)C1O` (stereo partly specified), the inhibition result in assay [1] and in assay [4] was “Active” in each case. Moreover, the outcome in assay [2] and in assay [5] was Active. In addition, the inhibition entry in assay [3] is “Dose-dependent effect”.
For `CN(CCOc1ccc(CC2SC(=O)NC2=O)cc1)c1ccccn1` (stereo unspecified) [ROSIGLITAZONE], the residual activity at 50 µM in assay [6] amounted to 240%.
On to `COC(=O)CC(C(=O)O)C1c2c(C(=O)O[C@H]3[C@H](OC(=O)c4cc(O)c(O)c(O)c4)O[C@H](COC(=O)c4cc(O)c(O)c(O)c4)[C@@H](O)[C@H]3OC(=O)c3cc(O)c(O)c(O)c3)cc(O)c(O)c2OC(=O)C1O` (stereo partly specified), for which the inhibition entry in assay [1] and in assay [4] was “Active” throughout. Moreover, the outcome in assay [7] and in assay [5] was Active. For the same molecule, the inhibition entry in assay [3] was “Dose-dependent effect”.
